Tests used:
IL-6 = assay: Serum IL-6 ELISA, Study 2; format: in vivo, mouse; conditions: Study 2 terminal serum; AR-42 10 mg/kg
Source text: (§1) FIG. 4A is a table showing multiplex analysis of diverse serum cytokines in terminal samples from Study 2. Presented cytokines are limited to those showing significant differences from tumor-bearing vehicle-treated controls. G-CSF: granulocyte colony-stimulating factor, GM-CSF: granulocyte macrophage colony-stimulating factor, IL-6: interleukin-6, IL-17: interleukin-17, IP-10: interferon gamma-induced protein 10, KC: chemokine (C-X-C motif) ligand 1, LIF: leukemia inhibitory factor, M-CSF: macrophage colony-stimulating factor. FIG. 4B is a bar graph showin ELISA analysis of serum IL-6 levels in terminal samples from Study 2. ND, not detected. FIG. 4C is a plot showing individual animal serum IL-6 values as determined in A plotted against tumor-corrected terminal bodyweights from Study 2 (Pearson's Correlation). […] FIG. 4E is a plot showing spleen weights normalized to tumor-corrected terminal body weights of mice from Study 2. FIG. 4F is a bar graph showing ELISA analysis of STAT3 within C-26 tumors from Study 2. […]
(§2) Serum cytokine panel analyses were performed by a commercial vendor (Eve Technologies, Calgary, Canada) as previously described. Serum interleukin-6 (IL-6) was measured using a commercial ELISA kit (R&D Systems, Minneapolis, Minn., USA) according to the manufacturer's instructions.

phospho-STAT3 (pSTAT3) = assay: Phospho-STAT3/STAT3 ELISA in C-26 tumors, Study 2; format: in vivo, mouse; conditions: AR-42 10 mg/kg
Source text: as §1
Phospho-STAT3/STAT3 Analysis: Expression of phospho-STAT3 and total STAT3 in C-26 tumor tissues was measured using commercial sandwich ELISA kits according to the manufacturer's instructions (PathScan® Phospho-Stat3, #7300, and Total Stat3, #7305, Cell Signaling Technology, Danvers, Mass.).

[1] = system: C-26 colon adenocarcinoma cachexia model; assay: Confirmatory AR-42/GTx-024 combination study (Study 2), C-26 model; format: in vivo, mouse
Protocol: (§3) These studies were performed as previously described (Tseng Y C, et al. J Natl Cancer Inst. 2015 107(12):djv274) with modifications. Tumors were established in the right flank by subcutaneous injection of C-26 cells (0.5×10^6 cells in 0.1 mL). […] TFM-4AS-1 (a potent experimental SARM), dihydrotestosterone (DHT) and vehicles were administered by subcutaneous injection.
(§4) This confirmatory study was performed exactly as Study 1 with expanded animal numbers. Tumor-free control groups were maintained at 6 animals each, whereas 10 animals were included in each of the tumor-bearing groups. […] Grip strength was measured on study days 0 (baseline) and 16. Due to rapid model progression, this study was terminated after only 12 days of treatment.
Forelimb grip strength was measured using Bio-GS3 Grip Strength Test Meter (Forceleader DBA Bioseb, Pinellas Park, Fla.). Each mouse was held by the base of its tail and lowered over the apparatus until its forepaws grasped the metal pull bar. The mouse was then gently pulled horizontally in a straight line away from the grip strength meter until the mouse released the bar. The force applied to the bar at the moment of release was recorded as the peak force. Five measurements were taken from each mouse, the average of which was designated as the mouse's grip strength.

[2] = oral gavage every other day; cited from earlier work
[3] = system: C-26 colon adenocarcinoma cachexia model; assay: AR-42 dose-response study in the C-26 cachexia model; format: in vivo, mouse
Protocol: as §3
Male CD2F1 mice were stratified by body weight and then randomly assigned into 5 groups of 6 animals each. C-26 tumors were established in four of the groups, while those in the fifth group, serving as tumor-free controls, were injected with sterile saline. Six days later, animals with palpable tumors were treated with AR-42 once daily at 10 (n=5) and 20 mg/kg (n=6), and every other day at 50 mg/kg (n=5), or vehicle control (n=4) for 13 days. Upon sacrifice on study day 18, when the majority of tumor-bearing control mice met euthanasia criteria, the left gastrocnemius muscle was excised and flash frozen in liquid nitrogen and stored at −80° C. for subsequent analyses. Carcass weights were corrected for tumor weight by assuming a tumor density equivalent to water (1 g/cm^3).

C-26 tumor-bearing mice = conditions: AR-42 50 mg/kg, Tseng et al. 2015, cited from earlier work
serum cytokines = assay: Serum cytokine panel, multiplex analysis, Study 2, tumor-free mice; format: in vivo, mouse; conditions: GTx-024 15 mg/kg p.o. qd, Day 17 sacrifice, mean ± SD
Protocol: as §4, §2

In the case of `CC(C)[C@H](C(=O)Nc1ccc(C(=O)NO)cc1)c1ccccc1` [AR-42, (S)—N-hydroxy-4-(3-methyl-2-phenylbutanamido)benzamide], the “circulating IL-6 levels (ELISA)” value (IL-6) is reported as “did not affect circulating IL-6 levels”, the “pSTAT3 signaling within the C-26 tumors” value (phospho-STAT3 (pSTAT3)) is reported as “did not significantly suppress pSTAT3 signaling within the C-26 tumors” and the spleen mass ([1]; Study 1 and 2, C-26 tumor-bearing, normalized to tumor-corrected terminal body weight) is reported as “either unchanged or slightly increased”. The forelimb grip strength ([1]; Study 2, day 16, C-26 tumor-bearing) was “improved grip strength over vehicle-treated tumor-bearing controls”, the “adipose or heart mass” value ([1]; Study 2, AR-42 10 mg/kg) was “had no impact on adipose or heart mass” and the “effect on gastrocnemius and quadriceps mass” value ([1]; Study 2, C-26 tumor-bearing, versus vehicle-treated tumor-bearing controls) was “significantly spared gastrocnemius and quadriceps mass”. For the same compound, the “maximally tolerated dose in mice” value [2] was 50 mg/kg, the lowest efficacious dose ([3]; daily oral, C-26 model) was 10 mg/kg and the tumor-corrected body weight ([3]; thirteen daily oral doses of 20 or 10 mg/kg, similar to six 50 mg/kg doses q2d, C-26 tumor-bearing mice, Day 18) was “reversed C-26 tumor-mediated reductions in tumor-corrected body weight”. The effect on adipose (C-26 tumor-bearing mice) was “adipose-sparing effect” and the “serum IL-6 levels and gastrocnemius IL-6 receptor mRNA abundance” value (C-26 tumor-bearing mice; tumor-bearing mice) was “reduced serum IL-6 levels, as well as gastrocnemius IL-6 receptor mRNA abundance”.

For `C[C@](O)(COc1ccc(C#N)cc1)C(=O)Nc1ccc(C#N)c(C(F)(F)F)c1` [GTx-024, (2S)-3-(4-cyanophenoxy)-N-(4-cyano-3-(trifluoromethyl)phenyl)-2-hydroxy-2-methylpropanamide], the “Eotaxin, serum” value (serum cytokines) was 669.53 ± 100.70 pg/mL, the “G-CSF, serum” value (serum cytokines) was 338.39 ± 71.70 pg/mL and the “GM-CSF, serum” value (serum cytokines) was 13.27 ± 4.62 pg/mL. The “IFNg, serum” value (serum cytokines) was 5.93 ± 2.14 pg/mL, the “IL12 (p40), serum” value (serum cytokines) was 22.48 ± 13.42 pg/mL and the “IL-1a, serum” value (serum cytokines) was 60.41 ± 56.12 pg/mL. For the same compound, the “IL-1b, serum” value (serum cytokines) was 14.65 ± 5.66 pg/mL, the “IL-2, serum” value (serum cytokines) was 15.43 ± 6.56 pg/mL and the “IL-3, serum” value (serum cytokines) was 1.10 ± 0.63 pg/mL. For the same compound, the “IL-4, serum” value (serum cytokines) was 0.48 ± 0.37 pg/mL, the “IL-5, serum” value (serum cytokines) was 5.71 ± 3.26 pg/mL and the “IL-6, serum” value (serum cytokines) was 2.45 ± 1.31 pg/mL. The “IL-7, serum” value (serum cytokines) was 11.51 ± 11.06 pg/mL, the “IL-9, serum” value (serum cytokines) was 8.02 ± 6.78 pg/mL and the “IL-10, serum” value (serum cytokines) was 2.38 ± 1.13 pg/mL. For the same compound, the “IL-12 (p70), serum” value (serum cytokines) was 10.83 ± 6.12 pg/mL, the “IL-13, serum” value (serum cytokines) was 29.87 ± 12.81 pg/mL and the “IL-15, serum” value (serum cytokines) was 131.33 ± 70.97 pg/mL. For the same compound, the “IL-17, serum” value (serum cytokines) was 5.01 ± 1.18 pg/mL, the “IP-10, serum” value (serum cytokines) was 145.68 ± 48.83 pg/mL and the “KC, serum” value (serum cytokines) was 90.02 ± 17.69 pg/mL. For the same compound, the “LIF, serum” value (serum cytokines) was 2.50 ± 2.34 pg/mL, the “LIX, serum” value (serum cytokines) was 1316.67 ± 1662.66 pg/mL and the “M-CSF, serum” value (serum cytokines) was 27.23 ± 10.09 pg/mL. For the same compound, the “MCP-1, serum” value (serum cytokines) was 54.54 ± 7.47 pg/mL, the “MIG, serum” value (serum cytokines) was 89.29 ± 41.83 pg/mL and the “MIP-1a, serum” value (serum cytokines) was 75.46 ± 29.41 pg/mL. For the same compound, the “MIP-1b, serum” value (serum cytokines) was 87.69 ± 10.61 pg/mL, the “MIP-2, serum” value (serum cytokines) was 136.75 ± 47.91 pg/mL and the “RANTES, serum” value (serum cytokines) was 20.84 ± 10.38 pg/mL. The “TNFa, serum” value (serum cytokines) was 12.15 ± 4.24 pg/mL and the “VEGF, serum” value (serum cytokines) was 0.87 ± 0.32 pg/mL.

Source: US11529323B2 (priority 2017, dated 2022)
